# Test results reported in patent publication US20100190849A1, “Novel Clerodanes and Methods for Repelling Arthropods” (priority 2006, published 2010).
# Marks after values point to notes of the source that are not given here.
# Tests used:
# [1] = tested on: S. invicta; experiment: Two-choice digging bioassay, head-to-head against octanoic acid; type: in vivo, Solenopsis invicta; details: 25.00 ppm; both S. invicta colonies; FIGS. 3 and 4
# Protocol: (§1) The repellency of the two terpenoids, callicarpenal and intermedeol, against workers of red imported fire ants, Solenopsis invicta Buren, black imported fire ants, Solenopsis rickeri Forel, and a hybrid of these two species was evaluated using multiple-choice digging bioassays (Tables 9 & 10). […] Callicarpenal and intermedeol were compared with octanoic acid, a known fire ant repellant, at the 25.00 ppm level using two-choice digging bioassays (FIGS. 3 and 4).
# Head-to-head comparison on repellency of callicarpenal and intermedeol against octanoic acid: The bioassay apparatus was similar as described above, except a smaller Petri dish (8.7×2.3 cm) was used and only two choices were presented: one was sand treated with callicarpenal or intermedeol and the other with octanoic acid. Two choices were opposite each other across the center of the Petri dish and each was 3.0 cm away from the center. All compounds were tested at a 25.00 ppm level. Sand preparation was similar as described above. Ants from the same colonies as above were used in this experiment. There were five replications for each pair of comparisons. A paired t-test (critical P-value=0.05) was used to compare the mean amount of sand removed between two tubes.
# [2] = tested on: red imported fire ants, Solenopsis invicta Buren; experiment: Multiple-choice digging bioassay, fire ant workers; type: in vivo
# Protocol: as §1
# (§2) Ants: Two Solenopsis invicta colonies were collected in Sharkey County, Mississippi, and two Solenopsis richteri colonies were collected in Granada County, Mississippi. Two colonies of the hybrid (S. invicta×S. richteri) colony were collected in Sunflower County, Mississippi. Fire ant mounds were shoveled and placed in 19-L plastic buckets. The inside wall of the bucket was then coated with baby powder (Cumberland Swan Holdings, Inc., Smyrna, Tenn.) to prevent ant escape. Following the water-drip method developed by Bank et al. (Banks, W. A., et al., Techniques for collecting, rearing, and handling imported fire ants, USDA SEA AATS-S-21 (1981)), ants were separated and then placed in a 44.5×60.0×13.0 cm plastic tray with inside walls coated with Fluon® (Ag Fluoropolymers, Chadds Ford, Pa.). Distilled water and 15% (w/v) sucrose water solution in separated test tubes which were plugged with cotton balls were placed in the trays. Heliocoverpa zea (Boddie) and tobacco budworm, Heliothis virescens (Fabricius) pupae were used as food sources. Inside each tray were one to three 14.0×2.0 cm Petri dishes with 1.0 cm of hardener dental plaster (Castone®; Dentsply International Inc. York, Pa.) on the bottom. Also, in the center of the Petri dish was a 5.0-cm diameter brood chamber. Two 8-mm access holes were made on the wall of the petri dish above the dental plaster. The Petri dish lid was painted black (1302 Gloss Black Spray Enamel, Louisville, Ky.)to block the light. All colonies were maintained at 22-25° C.
# (§3) Fire ant workers dug and removed sand from the tube through the entry hole. The differences in the amount of removed sand among treated and control tubes were used to evaluate chemical repellency. Four 2 ml centrifuge tubes were mounted under a 14.0×2.3 cm Petri dish using glue (Arrow Fastener Co., inc., Saddle Brook, N.J.). Tubes were 5.0 cm away from the center of the Petri dish and at equal distance from each other. A 3-mm diameter access hole was drilled for each centrifuge tube, which went through the bottom of the Petri dish and the cap of the tube. The inner side of the Petri dish was coated with Fluon. Three concentrations of a test compound and one control were set up in each apparatus. Six concentrations, including […], 6.25, 12.50, and 25.00 ppm, were tested in two separated bioassays for each species and hybrid; however three more concentrations of callicarpenal, 50.00, 100.00, and […], were tested for S. invicta. Sand (Premium Play Sand, Plassein International, Longview, Tex.) was first sieved through a ™35 U.S.A. standard testing sieve (Thomas Scientific, Swedesboro, N.J.) and then washed with distilled water and dried at 350° C. for 12 h. A 3 ml dichloromethane solution of callicarpenal or intermedeol was mixed with 30 g sand in an aluminum pan. The sand was stirred every 2 min to facilitate the evaporation of the solvent under a fume hood. After dichloromethane evaporated (5 minutes), 1.92 ml distilled water was added and mixed with sand. Sand in the control tube was treated only with dichloromethane. In each tube a mean (±SD) 2.78 g (±0.06 g) wet sand was added. There was no open space inside the tube. Locations of each concentration were randomized. Fifty fire ant workers were introduced into the center of the Petri Dish. The experiment was conducted at 22±0.8° C. (mean±SD) temperature and 45.4%±11.87% relative humidity. After 24 h, sand in each vial was collected, dried at 150° C. for at least 4 hour, and weighed. […]
# [3] = tested on: black imported fire ants, Solenopsis richteri Forel; experiment: Multiple-choice digging bioassay, fire ant workers; type: in vivo
# Protocol: as §1, §2, §3
# [4] = tested on: hybrid (S. invicta×S. richteri); experiment: Multiple-choice digging bioassay, fire ant workers; type: in vivo
# Protocol: as §1, §2, §3
smiles,measurement,setting,value
"C=C(C)C1CCC2(C)CCCC(C)(O)C2C1 [intermedeol, (4S,5S,7R,10S)-eudesm-11-en-4-ol]",repellency compared with octanoic acid (in words),[1],significantly greater repellency than octanoic acid
same,"Sand removed (SE), mean weight of sand removed by ants 24 h after release","[2]; S. invicta colony 1, Exp. 15, 0.75 ppm",0.56 (0.06) g
same,"Sand removed (SE), mean weight of sand removed by ants 24 h after release","[2]; S. invicta colony 1, Exp. 15, 1.50 ppm",0.36 (0.09)* g
same,"Sand removed (SE), mean weight of sand removed by ants 24 h after release","[2]; S. invicta colony 1, Exp. 15, 3.15 ppm",0.20 (0.06)* g
same,"Sand removed (SE), mean weight of sand removed by ants 24 h after release","[2]; S. invicta colony 1, Exp. 16, 6.25 ppm",0.66 (0.15)* g
same,"Sand removed (SE), mean weight of sand removed by ants 24 h after release","[2]; S. invicta colony 1, Exp. 16, 12.50 ppm",0.25 (0.13)* g
same,"Sand removed (SE), mean weight of sand removed by ants 24 h after release","[2]; S. invicta colony 1, Exp. 16, 25.00 ppm",0.18 (0.09)* g
same,"Sand removed (SE), mean weight of sand removed by ants 24 h after release","[2]; S. invicta colony 2, Exp. 17, 0.75 ppm",0.44 (0.10)* g
same,"Sand removed (SE), mean weight of sand removed by ants 24 h after release","[2]; S. invicta colony 2, Exp. 17, 1.50 ppm",0.35 (0.08)* g
same,"Sand removed (SE), mean weight of sand removed by ants 24 h after release","[2]; S. invicta colony 2, Exp. 17, 3.15 ppm",0.35 (0.12)* g
same,"Sand removed (SE), mean weight of sand removed by ants 24 h after release","[2]; S. invicta colony 2, Exp. 18, 6.25 ppm",0.17 (0.08)* g
same,"Sand removed (SE), mean weight of sand removed by ants 24 h after release","[2]; S. invicta colony 2, Exp. 18, 12.50 ppm",0.02 (0.01)* g
same,"Sand removed (SE), mean weight of sand removed by ants 24 h after release","[2]; S. invicta colony 2, Exp. 18, 25.00 ppm",0.04 (0.01)* g
same,"Sand removed (SE), mean weight of sand removed by ants 24 h after release","[3]; S. richteri colony 1, Exp. 19, 0.75 ppm",0.10 (0.06) g
same,"Sand removed (SE), mean weight of sand removed by ants 24 h after release","[3]; S. richteri colony 1, Exp. 19, 1.50 ppm",0.46 (0.18) g
same,"Sand removed (SE), mean weight of sand removed by ants 24 h after release","[3]; S. richteri colony 1, Exp. 19, 3.15 ppm",0.24 (0.11) g
same,"Sand removed (SE), mean weight of sand removed by ants 24 h after release","[3]; S. richteri colony 1, Exp. 20, 6.25 ppm",0.16 (0.10)* g
same,"Sand removed (SE), mean weight of sand removed by ants 24 h after release","[3]; S. richteri colony 1, Exp. 20, 12.50 ppm",0.07 (0.04)* g
same,"Sand removed (SE), mean weight of sand removed by ants 24 h after release","[3]; S. richteri colony 1, Exp. 20, 25.00 ppm",0.04 (0.01)* g
same,"Sand removed (SE), mean weight of sand removed by ants 24 h after release","[3]; S. richteri colony 2, Exp. 21, 0.75 ppm",0.16 (0.12) g
same,"Sand removed (SE), mean weight of sand removed by ants 24 h after release","[3]; S. richteri colony 2, Exp. 21, 1.50 ppm",0.26 (0.17) g
same,"Sand removed (SE), mean weight of sand removed by ants 24 h after release","[3]; S. richteri colony 2, Exp. 21, 3.15 ppm",0.17 (0.16) g
same,"Sand removed (SE), mean weight of sand removed by ants 24 h after release","[3]; S. richteri colony 2, Exp. 22, 6.25 ppm",0.02 (0.01)* g
same,"Sand removed (SE), mean weight of sand removed by ants 24 h after release","[3]; S. richteri colony 2, Exp. 22, 12.50 ppm",0.14 (0.07)* g
same,"Sand removed (SE), mean weight of sand removed by ants 24 h after release","[3]; S. richteri colony 2, Exp. 22, 25.00 ppm",0.02 (0.02)* g
same,"Sand removed (SE), mean weight of sand removed by ants 24 h after release","[4]; Hybrid colony 1, Exp. 23, 0.75 ppm",0.43 (0.15) g
same,"Sand removed (SE), mean weight of sand removed by ants 24 h after release","[4]; Hybrid colony 1, Exp. 23, 1.50 ppm",0.10 (0.03)* g
same,"Sand removed (SE), mean weight of sand removed by ants 24 h after release","[4]; Hybrid colony 1, Exp. 23, 3.15 ppm",0.10 (0.03)* g
same,"Sand removed (SE), mean weight of sand removed by ants 24 h after release","[4]; Hybrid colony 1, Exp. 24, 6.25 ppm",0.45 (0.08)* g
same,"Sand removed (SE), mean weight of sand removed by ants 24 h after release","[4]; Hybrid colony 1, Exp. 24, 12.50 ppm",0.37 (0.04)* g
same,"Sand removed (SE), mean weight of sand removed by ants 24 h after release","[4]; Hybrid colony 1, Exp. 24, 25.00 ppm",0.20 (0.09)* g
same,"Sand removed (SE), mean weight of sand removed by ants 24 h after release","[4]; Hybrid colony 2, Exp. 25, 0.75 ppm",0.34 (0.14) g
same,"Sand removed (SE), mean weight of sand removed by ants 24 h after release","[4]; Hybrid colony 2, Exp. 25, 1.50 ppm",0.25 (0.10) g
same,"Sand removed (SE), mean weight of sand removed by ants 24 h after release","[4]; Hybrid colony 2, Exp. 25, 3.15 ppm",0.28 (0.09) g
same,"Sand removed (SE), mean weight of sand removed by ants 24 h after release","[4]; Hybrid colony 2, Exp. 26, 6.25 ppm",0.20 (0.08)* g
same,"Sand removed (SE), mean weight of sand removed by ants 24 h after release","[4]; Hybrid colony 2, Exp. 26, 12.50 ppm",0.10 (0.04)* g
same,"Sand removed (SE), mean weight of sand removed by ants 24 h after release","[4]; Hybrid colony 2, Exp. 26, 25.00 ppm",0.04 (0.01)* g
